One molecule from patent US7531194B2, “Plant extracts for the treatment of rheumatoid arthritis” (Development Center for Biotechnology, priority 2006, dated 2009) can be followed below.

SMILES strings stand for the structures.

Holding throughout (assay type): in vivo, Lewis rats
In assay [1] the test system is CIA rats. The experiment in a line: Maximum arthritic index (MAI) of CIA rats fed PA extracts (Embodiment 4). As for the experimental part:
After immunization, the rats were observed three times a week. The changes of redness and swelling or the like in limbs were recorded, and photographs were taken and filed for comparison. The scoring of the examinations was based on 5 grades as follows:
Maximum arthritic index, average MAI for each group was calculated as follows: Average MAI=Total of MAI recorded in limbs of each rat (0: no CIA occurs, 16: highest score)/4/total rat number of each group
(§1) In the present animal test, the test animals and apparatus used are the same as those disclosed in embodiment 2.
(§2) The animal test scheme is shown as FIG. 11. Bovine collagen type II was dissolved in 0.1 M acetic acid solution, stirred to dissolve thoroughly, and formulated into solutions of concentrations of 1.5 and 3 mg/ml, which were stored at 4° C. for later use. For the first immune injection, 100 μl of C II solution was emulsified with an equal amount of CFA, and injected subcutaneously (200 μl/rat) in the root portions of tails of the rats after the emulsification was complete. […] After about 15 days, the second immunization was done. 100 μl of C II solution was emulsified with an equal amount of IFA, and injected subcutaneously (200 μl/rat) in the root portions of tails of the rats after the emulsification was complete. Approximately from Day 18, the symptoms of arthritis were observed (CIA rats), and PA and CBX were fed from Day 19 until Day 38.

Assay [2] has as its system CIA rats. The assay can be described thus: Joint swelling degree (toe thickness) of CIA rats fed PA extracts (Embodiment 4). As for the experimental part:
The thickness changes of soles of rats were measured by a Vernier Caliper (twice per week), and there were eight measurement sites in total in each rat, including one site at the center of each sole of the two front feet respectively, and three sites in each of the two back feet (ankle joint, sole, and root portion of toe) respectively.
as §1, §2

The subject of assay [3] is Rheumatoid factor (RF). The assay can be described thus: Serum RF of CIA rats fed PA extracts (Embodiment 4). The method, then:
1. Collagen was formulated in a coating buffer to a concentration of 40 μg/ml, 0.1 ml of which was added into a 96-well micro plate respectively, and was kept in 4° C. overnight.
2. After washing with Tris buffer three times, 0.2 ml of blocking buffer containing 1% BSA was added into each well. The reaction lasted for 2 hours at room temperature, and then was washed by Tris buffer three times again.
3. After the serum sample was diluted appropriately with Tris buffer containing 0.05% Tween 20 ( 1/20 or 1/40), 0.1 ml serum sample was added into each well of the 96-well micro plate. The reaction lasted for 2 hours at room temperature, and then was washed by Tris buffer three times again.
4. Coated anti-rat immunoglobulin M (IgM) was combined with horseradish […] (HRP), appropriately diluted ( 1/12000), and then added into the 96-well micro plate. The reaction lasted 2 hours at room temperature, and then was washed by Tris buffer three times again.
5. 0.1 ml of tetramethyl benzidine (TMB) was directly added into each well for color reaction, and then a stopping solution was added to stop the reaction. Finally, absorption (O.D) value was read out at the wavelength of 450 nm.
as §1, §2

Assay [4] has as its system IL-6. The assay can be described thus: PEC cytokine IL-6, CIA rats fed PA extracts (Embodiment 4). Conditions: PEC of CIA rats, gavage Day 19-38; doses as in the 4th table. As for the experimental part:
(§3) 1. After carbon dioxide euthanasia, the outer furs of the rat abdominal cavity were cut out by scissors, to expose the whole abdominal cavity.
(§4) 2. HBSS buffer was injected into the abdominal cavity batch-wise by a 10 ml syringe to make a total volume of about 20 ml/rat.
(§5) 3. The abdominal cavity of the rat was opened after the abdomen was gently kneaded. An incision of about 2 cm was made in the abdominal cavity by using scissors. Peritoneal exudation cell (PEC) liquid (about 10 to 15 ml of cellular fluid could be collected) was drawn with a syringe, and placed into a 50 ml centrifuge tube.
(§6) 4. The supernatant was removed after the liquid was centrifuged at 1500 rpm for 5 minutes. 10 ml of HBSS buffer was added to wash, and then centrifuged, after which the supernatant was removed.
(§7) 5. The cell concentration was adjusted to 2×10^6 cells/ml with a fresh culture medium (containing antibiotics).
(§8) 6. The cell suspension was divided into a 48-well plate at 0.5 ml/well.
(§9) 7. An additional. 0.5 ml of lipopolysaccharides (LPS) (20 μg/ml) was added separately, making a final concentration of 10 μg/ml.
(§10) 8. Finally, it was placed into a 37° C. incubator for 24 hours. The supernatant was collected, and stored in −20° C. The concentrations of cytokine TNF-α, IL-6, and IL-1β were analyzed by using ELISA kit.
In the present animal test, the test animals and apparatus used are the same as those disclosed in embodiment 2. […]

For assay [5], the system named is IL-1β. The experiment in a line: PEC cytokine IL-1β, CIA rats fed PA extracts (Embodiment 4). As for the experimental part: as §3, §4, §5, §6, §7, §8, §9, §10, §1
The animal test scheme is shown as FIG. 11. Bovine collagen type II was dissolved in 0.1 M acetic acid solution, stirred to dissolve thoroughly, and formulated into solutions of concentrations of 1.5 and 3 mg/ml, which were stored at 4° C. for later use. For the first immune injection, 100 μl of C II solution was emulsified with an equal amount of CFA, and injected subcutaneously (200 μl/rat) in the root portions of tails of the rats after the emulsification was complete. […] After about 15 days, the second immunization was done. […]

Setting [6] is: gavage Day 19-38, doses as in the 4th table.
[7] abbreviates: PEC of CIA rats, gavage Day 19-38, doses as in the 4th table.

Turning to `Cc1ccc(-c2cc(C(F)(F)F)nn2-c2ccc(S(N)(=O)=O)cc2)cc1` [CBX, Ceelebrex], in assay [1] (setting [6]), the “MAI, inhibitory effect” value was “(40%)” and the “MAI, inhibitory effect (grade)” value is “++ (“++” represents 25 to 50% of inhibitory effect)”. Also, the “effect on the arthritic indices (MAI) of CIA rats” value in assay [1] (gavage Day 19 until Day 38, FIG. 13) is on record as “most preferred”. Moreover, the “Toe thickness, inhibitory effect (grade)” value in assay [2] (gavage Day 19-38, CBX 18, PA-EtOH 40.5, PA-F1 3.0, PA-F2 1.13, PA-F3 11.3, PA-F4 11.3 mg/kg/day) was “++ (“++” represents 25 to 50% of inhibitory effect)”. For the same molecule, the “Toe thickness, inhibitory effect” value in assay [2] (setting [6]) is given as “(49%)”. In assay [3] (Day 30 compared to Day 18, FIG. 15), the “reduction of serum RF value” is “about 52%”. In addition, the “reduction of serum RF value” in assay [3] (Day 37 compared to Day 18, FIG. 15) was “about 66%”. Besides, in assay [3] (setting [6]), the “RF, inhibitory effect” value is reported as “(43%)” and the “RF, inhibitory effect (grade)” value was “++ (“++” represents 25 to 50% of inhibitory effect)”. Also, in assay [4], the “IL-6, inhibitory effect” value is on record as “(36%)” and the “IL-6, inhibitory effect (grade)” value is on record as “++ (“++” represents 25 to 50% of inhibitory effect)”. In assay [5] (setting [7]), the “IL-1β, inhibitory effect” value is recorded as “(38%)” and the “IL-1β, inhibitory effect (grade)” value is recorded as “++ (“++” represents 25 to 50% of inhibitory effect)”. In assay [5] (PEC of fed CIA rats, FIG. 17), the “inhibition of PEC secreting IL-1β” value is “significantly inhibits”.
